The values that follow come from patent publication US9029387B2, “Benzonaphthyridinamines as autotaxin inhibitors” (Merck Patent GmbH, priority 2010, dated 2015).

What is called IC50 is the concentration at which inhibition is half-maximal.

Each structure is given as a SMILES string.

The target in the first test is T1, recombinant autotaxin (Homo sapiens, UniProt Q13822).
T1 construct: made in house; host or cells: Hi5 insect cells (baculovirus)
Put plainly: Autotaxin test (enzyme test), Amplex Red fluorescence. Format: biochemical. The conditions noted are these: IC50 ranges; LPC 75 μM; read-out: Autotaxin inhibition IC50. As to the method:
The autotaxin activity is measured indirectly using Amplex Red reagent. Amplex Red is measured here as fluorogenic indicator for the H2O2 formed. In detail, autotaxin converts the substrate lysophosphatidylcholine (LPC) into phosphocholine and lysophosphatidylic acid (LPA). After this reaction, the phosphocholine is reacted with alkaline phosphatase to give inorganic phosphate and choline. In the next step, choline is oxidised by choline oxidase to give betaine, with formation of H2O2. H2O2 reacts with Amplex Red reagent in the presence of peroxidase (horseradish peroxidase) in a 1:1 stoichiometry and forms the highly fluorescent resorufin. The fluorescence is measured in a reaction-dependent kinetic mode in order that fluorescent signals from possible other fluorescent substances which are not involved in the reaction can be corrected out.
1.5 μl of a standard solution or of the test substances (compounds of the invention) in individual concentrations dissolved in 20 mM Hepes pH 7.2 with a maximum of 7.7% of DMSO are pre-incubated together with 10 μl (16 ng) of highly purified recombinant autotaxin in a black microtitre plate provided with 384 wells at 22° C. for 30 min. The reaction is then initiated by addition of 5 μl of L-α-lysophosphatidylcholine (LPC), where the final concentration of LPC is 75 μM. The mixture is incubated at 37° C. for 90 min. After the incubation, Amplex Red reagent, peroxidase (horseradish peroxidase) and choline oxidase is added, and the fluorescence is immediately measured at 612 nm with excitation of 485 nm in a “Tecan Ultra multimode” reader. The activity of autotaxin is calculated indirectly via detection of the H2O2 formed.
• Microtitre plate: PS microplate, 384 wells, small volume, black Corning, Cat#3677 • Protein: recombinant autotaxin (Baculovirale Hi5 Expression) • Substrate: L-a-lysophosphatidylcholine (chicken egg)); Avanti Polar Lipids #830071 P • Standard: C14 LPA, Avanti Polar Lipids, Cat#857120P • Detection reagent: Amplex Red reagent; Invitrogen #A12222; dissolved in 1.923 ml of DMSO peroxidase type VI-A (horseradish) from Sigma #P6782; dissolved in 7.45 ml of test buffer, choline oxidase; Sigma #C5896; dissolved in 2.47 ml of test buffer • Detection reagent mix: 1:100 dilution of Amplex Red Reagenzt in test buffer • Test buffer: 200 mM Tris HCl, Merck, Cat #1.08219, pH 7.9, 0.1% BSA, lipid-free, Roche Cat#775835 Pharmacological Data Autotaxin Inhibition
As to `COc1ccc(Cl)cc1NC(=O)CN1CCc2nc3ccccc3c(NC3CCN(C)CC3)c2C1` [Compound 1, N-(5-Chloro-2-methoxyphenyl)-2-[10-(1-methylpiperidin-4-ylamino)-3,4-dihydro-1H-benzo[b]-1,6-naphthyridin-2-yl]acetamide], the IC50 lay in the range of 0.1 to 1 µM. As for `COc1ccc(Cl)cc1NC(=O)CN1CCc2nc3ccccc3c(N)c2C1` [Compound 2, 2-(10-Amino-3,4-dihydro-1H-benzo[b]-1,6-naphthyridin-2-yl)-N-(5-chloro-2-methoxyphenyl)acetamide], the IC50 is greater than 1 µM. Turning to `COc1ccc(Cl)cc1NC(=O)CN1CCc2nc3ccccc3c(NCCO)c2C1` [Compound 4, N-(5-Chloro-2-methoxyphenyl)-2-[10-(2-hydroxy-ethylamino)-3,4-dihydro-1H-benzo[b]-1,6-naphthyridin-2-yl]acetamide], the IC50 is 0.1 to 1 µM. As for `COc1ccc(Cl)cc1NC(=O)CN1CCc2nc3ccccc3c(NCCN(C)C)c2C1` [Compound 5, N-(5-Chloro-2-methoxyphenyl)-2-[10-(2-dimethylamino-ethylamino)-3,4-dihydro-1H-benzo[b]-1,6-naphthyridin-2-yl]acetamide], the half-inhibitory concentration (IC50) was in the range of 0.1 to 1 µM. For the compound `COc1ccc(Cl)cc1NC(=O)COC(=O)N1CCc2nc3ccccc3c(NCCO)c2C1` [Compound 7, 10-(2-Hydroxyethylamino)-3,4-dihydro-1H-benzo[b]-1,6-naphthyridine-2-carboxylic acid (5-chloro-2-methoxy-phenylcarbamoyl)methyl ester], the IC50 was greater than 1 µM.

In the case of `CNC(=O)CNc1c2c(nc3ccccc13)CCN(CC(=O)Nc1cc(Cl)ccc1OC)C2` [Compound 8, N-(5-Chloro-2-methoxyphenyl)-2-[10-(methyl-carbamoylmethylamino)-3,4-dihydro-1H-benzo[b]-1,6-naphthyridin-2-yl]acetamide], the IC50 lay within 0.1 to 1 µM. As to `COc1ccc(Cl)cc1NC(=O)CN1CCc2nc3ccccc3c(NCC(=O)N(C)C)c2C1` [Compound 9, N-(5-Chloro-2-methoxyphenyl)-2-[10-(dimethyl-carbamoylmethylamino)-3,4-dihydro-1H-benzo[b]-1,6-naphthyridin-2-yl]acetamide], the IC50 was 0.1 to 1 µM. As for `COc1ccc(Cl)cc1NC(=O)CN1CCc2nc3ccccc3c(N3CCN(CCO)CC3)c2C1` [Compound 10, N-(5-Chloro-2-methoxyphenyl)-2-{10-[4-(2-hydroxyethyl)-piperazin-1-yl]-3,4-dihydro-1H-benzo[b]-1,6-naphthyridin-2-yl}acetamide], the half-inhibitory concentration (IC50) lay within 0.1 to 1 µM. On to `COc1ccc(Cl)cc1NC(=O)CN1CCc2nc3ccccc3c(NCc3nc4ccccc4[nH]3)c2C1` [Compound 11, 2-{10-[(1H-Benzimidazol-2-ylmethyl)amino]-3,4-dihydro-1H-benzo[b]-1,6-naphthyridin-2-yl}-N-(5-chloro-2-methoxyphenyl)acetamide], for which the IC50 is greater than 1 µM. As to `COc1ccc(Cl)cc1NC(=O)CN1CCc2nc3ccccc3c(NCC(=O)N3CCCC3)c2C1` [Compound 12, N-(5-Chloro-2-methoxyphenyl)-2-[10-(2-oxo-2-pyrrolidin-1-ylethylamino)-3,4-dihydro-1H-benzo[b]-1,6-naphthyridin-2-yl]acetamide], the IC50 was in the range of 0.1 to 1 µM. In the case of `COc1ccc(Cl)cc1NC(=O)CN1CCc2nc3ccccc3c(NCC(=O)N3CCCCC3)c2C1` [Compound 13, N-(5-Chloro-2-methoxyphenyl)-2-[10-(2-oxo-2-piperidin-1-ylethylamino)-3,4-dihydro-1H-benzo[b]-1,6-naphthyridin-2-yl]acetamide], the IC50 was in the range of 0.1 to 1 µM. Regarding `COc1ccc(Cl)cc1NC(=O)CN1CCc2nc3ccccc3c(NCC(=O)N3CCOCC3)c2C1` [Compound 14, N-(5-Chloro-2-methoxyphenyl)-2-[10-(2-morpholin-4-yl-2-oxoethylamino)-3,4-dihydro-1H-benzo[b]-1,6-naphthyridin-2-yl]acetamide], the IC50 lay within 0.1 to 1 µM. For the compound `COc1ccc(Cl)cc1NC(=O)CN1CCc2nc3ccccc3c(NCC(=O)NC3CCCCC3)c2C1` [Compound 15, N-(5-Chloro-2-methoxyphenyl)-2-[10-(cyclohexyl-carbamoylmethylamino)-3,4-dihydro-1H-benzo[b]-1,6-naphthyridin-2-yl]acetamide], the IC50 was greater than 1 µM. The same measure, in the same setting: the figure for `COc1ccc(Cl)cc1NC(=O)CN1CCc2nc3ccccc3c(NCC(=O)N3CCN(C)CC3)c2C1` [Compound 16, N-(5-Chloro-2-methoxyphenyl)-2-{10-[2-(4-methyl-piperazin-1-yl)-2-oxoethylamino]-3,4-dihydro-1H-benzo-[b]-1,6-naphthyridin-2-yl}acetamide] is 0.1 to 1 µM. Still for that read-out and setting: as for `COc1ccc(Cl)cc1NC(=O)CN1CCc2nc3ccccc3c(NCC(=O)N3CCN(C(C)C)CC3)c2C1` [Compound 17, N-(5-Chloro-2-methoxyphenyl)-2-{10-[2-(4-isopropyl-piperazin-1-yl)-2-oxoethylamino]-3,4-dihydro-1H-benzo-[b]-1,6-naphthyridin-2-yl}acetamide], the figure is 0.1 to 1 µM.

In the case of `CCN(CC)C(=O)CNc1c2c(nc3ccccc13)CCN(CC(=O)Nc1cc(Cl)ccc1OC)C2` [Compound 18, N-(5-Chloro-2-methoxyphenyl)-2-[10-(diethyl-carbamoylmethylamino)-3,4-dihydro-1H-benzo[b]-1,6-naphthyridin-2-yl]acetamide], the IC50 is 0.1 to 1 µM. `COc1ccc(Cl)cc1NC(=O)CN1CCc2nc3ccccc3c(NCC(=O)N3CCN(Cc4ccccc4)CC3)c2C1` [Compound 19, 2-{10-[2-(4-Benzylpiperazin-1-yl)-2-oxoethylamino]-3,4-dihydro-1H-benzo[b]-1,6-naphthyridin-2-yl}-N-(5-chloro-2-methoxyphenyl)acetamide]: the IC50 was in the range of 0.1 to 1 µM. On the same count and under the same terms, the figure for `COc1ccc(Cl)cc1NC(=O)CN1CCc2nc3ccccc3c(Nc3ccncc3)c2C1` [Compound 20, N-(5-Chloro-2-methoxyphenyl)-2-[10-(pyridin-4-ylamino)-3,4-dihydro-1H-benzo[b]-1,6-naphthyridin-2-yl]acetamide] is greater than 1 µM; for `COc1ccc(Cl)cc1NC(=O)CN1CCc2nc3ccccc3c(Nc3cccnc3)c2C1` [Compound 21, N-(5-Chloro-2-methoxyphenyl)-2-[10-(pyridin-3-ylamino)-3,4-dihydro-1H-benzo[b]-1,6-naphthyridin-2-yl]acetamide] it is greater than 1 µM; for `COc1ccc(Cl)cc1NC(=O)CN1CCc2nc3ccccc3c(Nc3ccccc3)c2C1` [Compound 22, N-(5-Chloro-2-methoxyphenyl)-2-(10-phenylamino-3,4-dihydro-1H-benzo[b]-1,6-naphthyridin-2-yl)acetamide] it is greater than 1 µM.

Regarding `COc1ccc(Cl)cc1NC(=O)CN1CCc2nc3ccccc3c(Nc3ccccn3)c2C1` [Compound 23, N-(5-Chloro-2-methoxyphenyl)-2-[10-(pyridin-2-ylamino)-3,4-dihydro-1H-benzo[b]-1,6-naphthyridin-2-yl]acetamide], the IC50 is greater than 1 µM. For `COc1ccc(Nc2c3c(nc4ccccc24)CCN(CC(=O)Nc2cc(Cl)ccc2OC)C3)cc1` [Compound 24, N-(5-Chloro-2-methoxyphenyl)-2-[10-(4-methoxy-phenylamino)-3,4-dihydro-1H-benzo[b]-1,6-naphthyridin-2-yl]acetamide], the IC50 was greater than 1 µM.

Staying with this test, now noted: at 3E−5M; LPC 75 μM.
Regarding `Nc1c2c(nc3ccccc13)CCN(CC(=O)Nc1cc(Cl)ccc1Cl)C2` [Compound 3, 2-(10-Amino-3,4-dihydro-1H-benzo[b]-1,6-naphthyridin-2-yl)-N-(2,5-dichlorophenyl)acetamide], the “% (ctrl 3E−5M)” value is 79%.

As for `COc1ccc(Cl)cc1NC(=O)COC(=O)N1CCc2nc3ccccc3c(NCCN(C)C)c2C1` [Compound 6, 10-(2-Dimethylaminoethylamino)-3,4-dihydro-1H-benzo[b]-1,6-naphthyridine-2-carboxylic acid (5-chloro-2-methoxyphenylcarbamoyl)methyl ester], the “% (ctrl 3E−5M)” value is recorded as −9%.
